Results published in patent EP0094833A2, “Novel 1,2-benzisoxazole derivatives” (Dainippon Pharmaceutical Co., Ltd., priority 1982, dated 1983).
≈ marks a conversion by molar mass, not a printed value. Where a name gives a salt, the structure may show the parent alone. Read-outs that look alike come from different tables or passages of the source.

What was measured:
ileum = test: Inhibitory effect on contractile response induced by acetylcholine (Anti-ACh), isolated ileum; format: cell-based, guinea pig; details: Cavia porcellus, read-out: Anti-ACh (IC50 : g/ml)
guinea pig taenia-coli = test: Inhibitory effect on contractile response induced by potassium chloride (Anti-KCl), isolated taenia-coli; format: cell-based; details: Cavia porcellus, read-out: IC50 (g/ml) Anti-KCl
Procedure: Experiment 2 Inhibitory effect on contractile response induced by potassium chloride (Anti-KC1) In the same manner as described in the above Experiment 1, isolated guinea pig taenia-coli about 3 cm in length was prepared, and mounted in Tyrode's solution. The contractile response was measured with an isometric transducer and recorded on recticorder. Each preparation was adjusted to a tension of .lg and allowed to equilibrate for 30 minutes before measuring the effects of the test compounds. Test compounds were applied to 5 minutes before adding potassium chloride (40 mM). Each Compound was tested in 2 - 3 concentrations.

[1] = system: spontaneous gastric motility; test: Inhibitory effect on spontaneous gastric motility (Anti-SGM) in conscious rats; format: in vivo, male Wistar strain rats; details: Rat, maximum percent inhibition of initial spontaneous motility
Procedure: (§1) Experiment 3 Inhibitory effect on spontaneous gastric motility (Anti-SGM)
(§2) This effect was examined using male Wistar strain rats or male Albino strain rabbits, with chronically implanted strain gauge force transducer. The rats or rabbits were allowed to stand for 3 - 5 days for recovery from the surgery and fasted for 18 hours before experiment. Then, spontaneous gastric motility in conscious rats or rabbits was recorded and the sum of amplitude of each contraction was calculated every 15 minutes. Inhibitory effect of test compound by oral administration was expressed as a maximum percent inhibition of initial spontaneous motility.

[2] = system: spontaneous gastric motility; test: Inhibitory effect on spontaneous gastric motility (Anti-SGM) in conscious rabbits; format: in vivo, male Albino strain rabbits; details: Rabbit, 100 mg/kg po, maximum percent inhibition of initial spontaneous motility
Procedure: as §1, §2

[3] = guinea pig ileum, acetylcholine 2 X 10^-8 g/ml, test compound applied 2 minutes before
[4] = guinea pig taenia-coli, potassium chloride 40 mM, test compound applied 5 minutes before

SMILES | IC50 (ileum; [3]) [µg/mL] | IC50 (guinea pig taenia-coli; [4]) [µg/mL] | further results
CN1CCC(OC(=O)C(c2noc3ccccc23)C2CCCCC2)CC1 (stereo not shown) [Example 5] | 0.037 (≈ 0.104 µM) |  | 
CN1CCC(OC(=O)C(c2noc3ccc(Cl)cc23)C2CCCCC2)CC1.O=C(O)C(=O)O (stereo not drawn) [Example 2, 1-Methyl-4-piperidyl α-cyclohexyl-5-chloro-1,2-benzisoxazole-3-acetate oxalate] | 0.34 | 3.2 | 
C[N+]1(C)CCC(OC(=O)C(c2noc3ccccc23)C2CCCCC2)CC1 (stereo not shown) [Example 33] | 0.013 |  | 
O=C(OCCN1CCCC1)C(Cc1ccccc1)(Cc1ccccc1)c1noc2ccccc12 [Example 29] | 0.96 (≈ 2.11 µM) |  | 
CCN(CC)CC(C)OC(=O)C1CCCCC1(O)C1CCCCC1 (stereo not shown) [Rociverine, reference compound] | 1.1 (≈ 3.24 µM) | 5.4 (≈ 15.9 µM) | 
COc1ccc(Cc2nccc3cc(OC)c(OC)cc23)cc1OC [Papaverine hydrochloride, reference compound] |  |  | IC50 (ileum): 13 µg/mL; IC50 (guinea pig taenia-coli): 1.3 µg/mL
O=C(OCCN1CCCCC1)C(c1noc2ccccc12)C1CCCCC1 (stereo not shown) [Example 9] | 0.41 (≈ 1.11 µM) | 2.7 (≈ 7.29 µM) | 
CC[N+]1(C)CCC(OC(=O)C(c2noc3ccccc23)C2CCCCC2)CC1.[Br-] (stereo not shown) [Example 31, 1-Ethyl-1-methyl-4-[2-(1,2-benzisoxazol-3-yl)-2-cyclohexylacetoxy]piperidinium bromide] | 0.014 |  | 
CN1CCC(OC(=O)C(Cc2ccccc2)(Cc2ccccc2)c2noc3ccccc23)CC1 [Example 28] | 0.65 (≈ 1.43 µM) | 0.56 (≈ 1.23 µM) | 
CCCC[N+]1(C)C2CC(OC(=O)C(CO)c3ccccc3)CC1C1OC12 (stereo not shown) [Scopolamine-N-butyl bromide, reference compound] | 0.089 |  | 

The next lines start with results.

IC50 (ileum; [3]) [µg/mL] | IC50 (guinea pig taenia-coli; [4]) [µg/mL] | SMILES | further results
0.21 |  | CC[N+](C)(CC)CCCOC(=O)C(c1noc2ccccc12)C1CCCCC1 (stereo not shown) [Example 32] | 
0.026 |  | CC[N+](C)(CC)CCOC(=O)C(c1noc2ccccc12)C1CCCCC1 (racemic) [Example 34] | 
0.12 (≈ 0.335 µM) | 1 (≈ 2.79 µM) | CCN(CC)CCOC(=O)C(c1noc2ccccc12)C1CCCCC1 (stereo not shown) [Example 3] | 
0.69 (≈ 1.72 µM) |  | CCN(CC)CCCC(C)OC(=O)C(c1noc2ccccc12)C1CCCCC1 (stereo not shown) [Example 7] | 
0.48 (≈ 1.24 µM) |  | CCN(CC)CCCCOC(=O)C(c1noc2ccccc12)C1CCCCC1 (stereo not shown) [Example 8] | 
0.16 | 0.85 | Br.CCN(CC)CCCOC(=O)C(c1noc2ccccc12)C1CCCCC1 (stereo not drawn) [Example 1, 3-Diethylaminopropyl α-cyclohexyl-1,2-benzisoxazole-3-acetate hydrobromide] | Inhibition (%) ([1]; 100 mg/kg po): 36%; Inhibition (%) ([1]; 200 mg/kg po): 49%; Inhibition (%) [2]: 52%
0.87 (≈ 2.21 µM) | 3.3 (≈ 8.4 µM) | CCN(CC)CCOC(=O)C(c1noc2ccc(Cl)cc12)C1CCCCC1 (stereo not shown) [Example 10] | 
0.057 |  | C[N+]1(C)CCC(OC(=O)C(c2noc3ccc(Cl)cc23)C2CCCCC2)CC1 (racemic) [Example 35] | 
0.42 (≈ 1.13 µM) | 1.6 (≈ 4.3 µM) | CCN(CC)CC(C)OC(=O)C(c1noc2ccccc12)C1CCCCC1 (stereo not shown) [Example 4] | 
